≈ marks a conversion by molar mass, not a printed value. Where only a bound is given, the exact number is not on record here.

Test [1] concerns P-388 leukemia cells. The test is described as follows: In vivo antitumor activity in mice vs. P-388 leukemia. The note with it: for T/C vs. P-388 / survivors, P-388: mice.
In test [2] the test system is LX-1 human lung carcinoma xenograft. The experiment in a line: In vivo antitumor activity in mice vs. LX-1 human lung carcinoma xenograft.
Test [3] concerns M-5076 ovarian sarcoma. The test is described as follows: In vivo antitumor activity in mice vs. M-5076 ovarian sarcoma.
Test [4] concerns MX-1 human mammary carcinoma xenograft. The experiment in a line: In vivo antitumor activity in mice vs. MX-1 human mammary carcinoma xenograft. In general terms: A xenograft is tissue or cells of one species grown in another, often human tumour cells in immunodeficient mice.
For test [5], the system named is B-16 melanoma. The test is described as follows: In vivo antitumor activity in mice vs. B-16 melanoma.
Test [6] relates to Lewis lung carcinoma. The experiment in a line: In vivo antitumor activity in mice vs. Lewis lung carcinoma.
The subject of test [7] is variety of tumor models in mice. The test is described as follows: In vivo activity against several tumor models in mice.
Test [8] concerns P-388 murine leukemia cell line. The experiment in a line: In vitro activity against P-388 murine leukemia cell line. Format: cell-based. The procedure: (§1) Compounds 3 and 5 described herein were tested in vitro against the following cell lines; P-388 murine leukemia cell line; HT-29 human colon cancer cell line; A-549 human lung adenocarcinoma cell line; and CV-1 monkey kidney cell line (non-cancerous); and the IC50 in μg/ml was determined.

The subject of test [9] is A-549 human lung adenocarcinoma cell line. The test is described as follows: In vitro activity against A-549 human lung adenocarcinoma cell line. Format: cell-based. The procedure: as §1
In test [10] the test system is HT-29 human colon cancer cell line. The test is described as follows: In vitro activity against HT-29 human colon cancer cell line. Format: cell-based. The procedure:
as §1

In test [11] the test system is CV-1 monkey kidney cell line. The experiment in a line: In vitro activity against CV-1 monkey kidney cell line (non-cancerous). In kind it is cell-based. The note with it: CV-1 monkey kidney (non-cancerous). As for the experimental part: as §1
The subject of test [12] is L1210 leukemia cells. The experiment in a line: Inhibition of L1210 leukemia cells in plate assays. In kind it is cell-based. The note with it: Mus musculus. The procedure: Et's 722 (Compound 6) and 736 (Compound 7)inhibit L1210 leukemia cells to the extent of 90% in plate assays at 2.5 and 5.0 μg/ml, respectively.
The test system of test [13] is DNA. The note with it: Lown et al. 1982; Zmijewski et al. 1985; cited from earlier work.
The mark [14] stands for this setting: comparison Compound 1 vs. Compound 6.

Regarding `COc1cc2c(cc1O)CCN[C@]21CSC2c3c(OC(C)=O)c(C)c4c(c3C(COC1=O)N1C2C2NC(Cc3cc(C)c(OC)c(O)c32)[C@@H]1O)OCO4` (stereo partly shown) [Compound 1], in test [1] (12.5 μg/kg day), the “T/C vs. P-388” value is 190 and the “survivors, P-388” value is 1/6. For the same compound, the “T/C vs. LX-1” value in test [2] (25 μg/kg) is on record as 0.00. Moreover, the “activity vs. LX-1 compared with Compound 6” value in test [2] (setting [14]) is “more active”. Besides, in test [3] (12.5 μg/kg), the “T/C vs. M-5076” value is given as 204 and the “survivors, M-5076” value was 5/10. Also, the “activity vs. M-5076 compared with Compound 6” value in test [3] (setting [14]) was “more active”. Also, the “T/C vs. MX-1” value in test [4] (37.5 μg/kg) is given as 0.05. The “activity vs. MX-1 compared with Compound 6” value in [4] (setting [14]) is listed as “more active”. In [5] (12.5 μg/kg), the “T/C vs. B-16” value is given as 253. In [5] (setting [14]), the “activity vs. B-16 compared with Compound 6” value is “more active”. For the same compound, the “T/C vs. Lewis lung” value in [6] (25 μg/kg) is on record as 0.00. In test [6] (setting [14]), the “activity vs. Lewis lung compared with Compound 6” value is “more active”. Besides, the “in vivo activity in mice” value in test [7] was “exceedingly potent activity in vivo”.
Regarding `COc1cc2c(cc1O)CCN[C@]21CSC2c3c(OC(C)=O)c(C)c4c(c3C(COC1=O)N1C2C2c3c(cc(C)c(OC)c3O)CC([C@@H]1O)N2C)OCO4` (stereo partly shown) [Compound 2], the “in vivo activity in mice” value in test [7] is listed as “exceedingly potent activity in vivo”.
On to `COc1cc2c(cc1O)CCN[C@]21CSC2c3c(OC(C)=O)c(C)c4c(c3C(COC1=O)N1C2C2c3c(cc(C)c(OC)c3O)CC([C@@H]1O)N2C=O)OCO4` (stereo partly shown) [Compound 3, N^12 -Formyl Et 729], for which the half-maximal inhibitory concentration (IC50) in test [8] (Mus musculus, P388) was determined as 0.5 ng/mL (≈ 0.644 nM); in [9] (A549), 2 ng/mL (≈ 2.58 nM); in test [10], 2 ng/mL (≈ 2.58 nM); in test [11] (Primates), 5 ng/mL (≈ 6.44 nM).
Compound `COc1c(C)cc2c(c1O)C1NC(C2)[C@H](O)N2C3COC(=O)[C@]4(CSC(c5c(OC(C)=O)c(C)c6c(c53)OCO6)C12)NCCc1c4[nH]c2ccccc12` (stereo partly shown) [Compound 6] registered an inhibition at 2.5 µg/mL in [12] (at 2.5 μg/ml) of 90%. In test [1] (25 μg/kg day), the “T/C vs. P-388” value is > 265 and the “survivors, P-388” value is 2/6. Moreover, the “activity vs. P-388 compared with Compound 1” value in test [1] (comparison Compound 6 vs. Compound 1) is “more effective than Compound 1”. For the same compound, in [2] (50 μg/kg, mice), the “T/C vs. LX-1” value was 200. For the same compound, the “activity vs. M-5076 ovarian sarcoma” value in [3] (mice) is reported as “slightly active”. In [4] (mice), the “activity vs. MX-1 human mammary carcinoma xenograft” value is “slightly active”. In addition, the “in vivo activity in mice” value in test [7] is recorded as “highly active in vivo in mice”.
On to `COc1c(C)cc2c(c1O)C1C3C4SC[C@]5(NCCc6c5[nH]c5ccccc65)C(=O)OCC(c5c6c(c(C)c(OC(C)=O)c54)OCO6)N3[C@@H](O)C(C2)N1C` (stereo partly shown) [Compound 7], for which at 5 µg/mL the inhibition in test [12] (at 5.0 μg/ml) was 90%.
For the compound `COC1=C(C)C(=O)C2=C(C1=O)C(CO)N1C(O)C3CC4C(C1C2N1CCOC41)N3C` (stereo not shown) [naphthyridinomycin], in test [13], the “reactions with DNA” value is given as “reversible reactions”.
In the case of `COC1=C(C)C(=O)C2=C(C1=O)C1C3CC4=C(C(=O)C(OC)=C(C)C4=O)C(CNC(=O)C(C)=O)N3C(C#N)C(C2)N1C` (stereo not shown) [saframycin A], the “reactions with DNA” value in test [13] is listed as “reversible reactions”.
As for Et 743 N^12 -Oxide [Compound 5], the “IC50 against P-388” value in [8] came to 1 ng/mL. The “IC50 against A-549” value in [9] is 2.5 ng/mL. Also, in test [10], the “IC50 against HT-29” value amounted to 2.5 ng/mL. For the same compound, the “IC50 against CV-1” value in test [11] amounted to 2.5 ng/mL.

By IC50 is commonly meant the concentration that gives 50% inhibition. The term inhibition denotes the percentage by which the read-out fell short of the control.

Source of the values: patent US5654426A, “Ecteinascidins” (priority 1995, dated 1997).
